Legend:
[1] = Acid ionization constants and lactic acid/lactate speciation; format: physicochemical
Text: […]. When citric acid is used as the supplemental acid, less total acid is required to achieve a desired pH than, say, when using malic acid, which is half the strength of citric (Ka1 of citric is 8.2×10^−4 vs. 3.9×10^−4 for malic acid). Thus a smaller amount of lactic acid is used when it represents, say, 10% of a lactic/citric combination than a lactic/malic combination; […]. In certain embodiments, the metal lactate in these compositions is an alkali, an alkaline earth lactate, or a heavier metal lactate. […]. Useful alkaline earth metal lactates include magnesium and calcium lactate. Available heavier metal lactates are ferrous and aluminum lactates, although the cation flavor is intrusive. […]. At pH 2.5 96% of the two lactic species exist as lactic acid, which drops to 70% at pH 3.5. […].
The acid and chlorite solutions had first been equilibrated at 37° C., to simulate body temperature. The solution pHs, in both cases, were 3.0. After 10 minutes, the solution Absorbance values were measured at a wavelength of 360 nm in a spectrophotometer, and the concentration of chlorine dioxide (ClO2) then calculated, using the molar extinction coefficient of 1,242 liter/mole.cm. […]

[2] = system: E. coli; assay: AOAC Germicidal Test procedure; format: cell-based; settings: for E. coli organisms destroyed/killed: initial inoculum of E. coli 7.63 logs10/ml, equimolar amounts of the unionized acid form
Text: […]. […] […].

CC(O)C(=O)O (stereo not drawn) [lactic acid]
fraction of the two lactic species existing as lactic acid ([1]; pH 2.5): 96% | fraction of the two lactic species existing as lactic acid ([1]; pH 3.5): 70% | fraction of the two lactic species existing as lactic acid ([1]; pH 4.0): 42% | E. coli organisms destroyed/killed [2]: 4.15 logs10/ml

O=C(O)CC(O)C(=O)O (stereo not drawn) [malic acid]
E. coli organisms destroyed/killed [2]: 1.45 logs10/ml | residual E. coli organisms per ml after disinfection, malic acid-treated relative to lactic acid-treated suspension ([2]; malic acid vs lactic acid): ~1500 times
